Laboratory results: paper PMC10866072, “Design, synthesis, molecular modelling and biological evaluation of novel 6-amino-5-cyano-2-thiopyrimidine derivatives as potent anticancer agents against leukemia and apoptotic inducers” (Journal of Enzyme Inhibition and Medicinal Chemistry, 2024)

Experiments:
MDA-MB-468 = type: cell-based; conditions: Homo sapiens, one dose 10^-5 M, 48 h
CAKI-1 = type: cell-based; conditions: Homo sapiens, CAKI-1, 48 h, one dose 10^-5 M, 48 h
A498 = type: cell-based; conditions: Homo sapiens, one dose 10^-5 M, 48 h
MOLT-4 = type: cell-based; conditions: Homo sapiens, one dose 10^-5 M, 48 h, read-out: % growth
SK-OV-3 = type: cell-based; conditions: Homo sapiens, one dose 10^-5 M, 48 h
T-47D = type: cell-based; conditions: Homo sapiens, T47D, one dose 10^-5 M, 48 h, read-out: % growth
NCI-H460 = type: cell-based; conditions: Homo sapiens, one dose 10^-5 M, 48 h, read-out: % growth
SR = type: cell-based; conditions: Homo sapiens, one dose 10^-5 M, 48 h
SK-MEL-28 = type: cell-based; conditions: Homo sapiens, one dose 10^-5 M, 48 h
OVCAR-8 = type: cell-based; conditions: Homo sapiens, one dose 10^-5 M, 48 h
MALME-3M = type: cell-based; conditions: Homo sapiens, one dose 10^-5 M, 48 h
SF-268 = type: cell-based; conditions: Homo sapiens, one dose 10^-5 M, 48 h, read-out: % growth
NCI-H226 = type: cell-based; conditions: Homo sapiens, one dose 10^-5 M, 48 h
RXF 393 = type: cell-based; conditions: Homo sapiens, RXF 393, 48 h, one dose 10^-5 M, 48 h, read-out: % growth
LOX IMVI = type: cell-based; conditions: Homo sapiens, one dose 10^-5 M, 48 h, read-out: % growth
UO-31 = type: cell-based; conditions: Homo sapiens, UO-31, 48 h, one dose 10^-5 M, 48 h
HOP-92 = type: cell-based; conditions: Homo sapiens, one dose 10^-5 M, 48 h
HT29 = type: cell-based; conditions: Homo sapiens, HT-29, one dose 10^-5 M, 48 h
HCT-116 = type: cell-based; conditions: Homo sapiens, one dose 10^-5 M, 48 h, read-out: % growth
HS 578T = type: cell-based; conditions: Homo sapiens; one dose 10^-5 M, 48 h; HS 578T; read-out: % growth
SNB-19 = type: cell-based; conditions: Homo sapiens, one dose 10^-5 M, 48 h, read-out: % growth
SK-MEL-5 = type: cell-based; conditions: Homo sapiens, one dose 10^-5 M, 48 h, read-out: % growth
[1] = system: full NCI 60 cell lines panel; conditions: Homo sapiens, 60 cell, 48 h, read-out: Mean % growth
HL-60(TB) = type: cell-based; conditions: Homo sapiens, one dose 10^-5 M, 48 h
UACC-62 = type: cell-based; conditions: Homo sapiens, one dose 10^-5 M, 48 h
NCI-H23 = type: cell-based; conditions: Homo sapiens, one dose 10^-5 M, 48 h, read-out: % growth
HCT-15 = type: cell-based; conditions: Homo sapiens, one dose 10^-5 M, 48 h, read-out: % growth
IGROV1 = type: cell-based; conditions: Homo sapiens, IGROV-1, one dose 10^-5 M, 48 h, read-out: % growth
SK-MEL-2 = type: cell-based; conditions: Homo sapiens, one dose 10^-5 M, 48 h
UACC-257 = type: cell-based; conditions: Homo sapiens, one dose 10^-5 M, 48 h
SF-295 = type: cell-based; conditions: Homo sapiens, one dose 10^-5 M, 48 h
RPMI-8226 = type: cell-based; conditions: Homo sapiens, one dose 10^-5 M, 48 h
MDA-MB-435 = type: cell-based; conditions: Homo sapiens, one dose 10^-5 M, 48 h, read-out: % growth
HOP-62 = type: cell-based; conditions: Homo sapiens, one dose 10^-5 M, 48 h
NCI-H522 = type: cell-based; conditions: Homo sapiens, one dose 10^-5 M, 48 h
A549/ATCC = type: cell-based; conditions: Homo sapiens, one dose 10^-5 M, 48 h
SNB-75 = type: cell-based; conditions: Homo sapiens, one dose 10^-5 M, 48 h
ACHN = type: cell-based; conditions: Homo sapiens, one dose 10^-5 M, 48 h
SN12C = type: cell-based, human; conditions: Homo sapiens, one dose 10^-5 M, 48 h
DU-145 = type: cell-based; conditions: Homo sapiens, one dose 10^-5 M, 48 h
U251 = type: cell-based; conditions: Homo sapiens, U-251, one dose 10^-5 M, 48 h
HCC-2998 = type: cell-based; conditions: Homo sapiens, one dose 10^-5 M, 48 h
MDA-MB-231/ATCC = type: cell-based; conditions: Homo sapiens, one dose 10^-5 M, 48 h
CCRF-CEM = type: cell-based; conditions: Homo sapiens, one dose 10^-5 M, 48 h
OVCAR-4 = type: cell-based; conditions: Homo sapiens, one dose 10^-5 M, 48 h
OVCAR-5 = type: cell-based; conditions: Homo sapiens, one dose 10^-5 M, 48 h
SF-539 = type: cell-based; conditions: Homo sapiens, one dose 10^-5 M, 48 h
OVCAR-3 = type: cell-based; conditions: Homo sapiens, one dose 10^-5 M, 48 h
MCF7 = type: cell-based; conditions: Homo sapiens, one dose 10^-5 M, 48 h, read-out: % growth
SW-620 = type: cell-based; conditions: Homo sapiens, one dose 10^-5 M, 48 h
TK-10 = type: cell-based; conditions: Homo sapiens, one dose 10^-5 M, 48 h
K-562 = type: cell-based; conditions: Homo sapiens, K562, one dose 10^-5 M, 48 h
786-0 = type: cell-based; conditions: Homo sapiens, one dose 10^-5 M, 48 h
EKVX = type: cell-based; conditions: Homo sapiens, one dose 10^-5 M, 48 h
M14 = type: cell-based; conditions: Homo sapiens, one dose 10^-5 M, 48 h
PC-3 = type: cell-based; conditions: Homo sapiens, one dose 10^-5 M, 48 h
KM12 = type: cell-based; conditions: Homo sapiens, one dose 10^-5 M, 48 h

Structure (SMILES): N#Cc1c(N)nc(S)nc1-c1ccc(Cl)cc1 [Compound 1b]
- percent cell growth at 10 µM (MDA-MB-468): 81.1%
- % growth at 10 µM (CAKI-1): 52%
- % growth at 10 µM (A498): 77.4%
- activity at 10 µM (MOLT-4): 50.7%
- % growth at 10 µM (SK-OV-3): 84.3%
- activity at 10 µM (T-47D): 58.3%
- activity at 10 µM (NCI-H460): 86.7%
- percent cell growth at 10 µM (SR): 66.9%
- % cell growth at 10 µM (SK-MEL-28): 95.6%
- % growth of cells at 10 µM (OVCAR-8): 82.2%
- % growth at 10 µM (MALME-3M): 99.6%
- activity at 10 µM (SF-268): 69.7%
- % growth at 10 µM (NCI-H226): 78.7%
- activity at 10 µM (RXF 393): 55.5%
- activity at 10 µM (LOX IMVI): 79.2%
- % cell growth at 10 µM (UO-31): 45.4%
- % growth at 10 µM (HOP-92): 43.5%
- % growth at 10 µM (HT29): 91.1%
- activity at 10 µM (HCT-116): 76.5%
- activity at 10 µM (HS 578T): 74%
- activity at 10 µM (SNB-19): 60.4%
- activity at 10 µM (SK-MEL-5): 85.9%
- activity at 10 µM [1]: 75.7%
- % growth at 10 µM (HL-60(TB)): 69.6%
- % growth at 10 µM (UACC-62): 66.8%
- activity at 10 µM (NCI-H23): 85.5%
- activity at 10 µM (HCT-15): 86%
- activity at 10 µM (IGROV1): 57.9%
- % growth at 10 µM (SK-MEL-2): 96.5%
- percent cell growth at 10 µM (UACC-257): 102%
- % cell growth at 10 µM (SF-295): 76.2%
- % growth at 10 µM (RPMI-8226): 47.2%
- activity at 10 µM (MDA-MB-435): 86.5%
- % growth at 10 µM (HOP-62): 74.6%
- % growth at 10 µM (NCI-H522): 58.7%
- % growth at 10 µM (A549/ATCC): 86%
- % growth at 10 µM (SNB-75): 42.2%
- % growth at 10 µM (ACHN): 77.2%
- % growth at 10 µM (SN12C): 75.7%
- % growth at 10 µM (DU-145): 86.8%
- % growth at 10 µM (U251): 81.6%
- % growth at 10 µM (HCC-2998): 99.6%
- % growth at 10 µM (MDA-MB-231/ATCC): 53.7%
- % cell growth at 10 µM (CCRF-CEM): 65.5%
- % growth at 10 µM (OVCAR-4): 76.2%
- percent cell growth at 10 µM (OVCAR-5): 91.6%
- % growth at 10 µM (SF-539): 71.9%
- % growth at 10 µM (OVCAR-3): 93.4%
- activity at 10 µM (MCF7): 67.7%
- % growth at 10 µM (SW-620): 87.3%
- % cell growth at 10 µM (TK-10): 126%
- % growth at 10 µM (K-562): 68.1%
- % growth at 10 µM (786-0): 85%
- % cell growth at 10 µM (EKVX): 61%
- % growth at 10 µM (M14): 99.9%
- percent cell growth at 10 µM (PC-3): 56.4%
- % growth at 10 µM (KM12): 82%
